Experimental data: patent US20150368248A1, “2-SUBSTITUTED-6-BIARYLMETHYLAMINO-9-CYCLOPENTYL-9H-PURINE DERIVATIVES, USE THEREOF AS MEDICAMENTS, AND PHARMACEUTICAL COMPOSITIONS” (UNIVERZITA PALACKEHO V OLOMOUCI, priority 2013, published 2015)
Read-outs that look alike come from different tables or passages of the source.

Legend:
CDK1/cyclin B = target: T1, CDK1/cyclin B (Homo sapiens, UniProt P06493); test: Kinase inhibition assay, recombinant kinase, [γ-33P]ATP; type: biochemical; settings: read-out: Kinase inhibition IC50, CDK1
T1 construct: made in house; host or cells: Sf9 insect cells (baculovirus)
Experimental: CDK2/Cyclin E kinase was produced in Sf9 insect cells via baculoviral infection and purified on a NiNTA column (Qiagen). CDK5/p35, CDK7Cyclin H/MAT1 and CDK9/Cyclin T1 was purchased from ProQinase GmbH. […] The reactions were stopped by adding 5 μL of 3% aq H3PO4. Aliquots were spotted onto P-81 phosphocellulose (Whatman), washed 3× with 0.5% aq H3PO4 and finally air-dried.
(§1) CDK1/cyclin B and CDK2/cyclin E kinases were produced in Sf9 insect cells via baculoviral infection, while CDK5/p35, CDK7/cyclin H/MAT1, and CDK9/cyclin T1 were purchased from ProQinase (Freiburg, Germany) and assayed as described previously (35). The kinase reactions were assayed with 1 mg/ml histone H1 (for CDK2 and CDK5) or (YSPTSPS)2KK peptide (for CDK7 and CDK9) in the presence of 15/0.15/1.5/1.5 […] ATP (for CDK2/CDK5/CDK7CDK9), […] [γ-^33P]ATP and of the test compound in a final volume of […]. The reaction buffer contained 60 mM HEPES-NaOH, pH 7.5, 3 mM MgCl2, 3 mM MnCl2, 3 mM Na-orthovanadate, 1.2 mM DTT, 2.5 mg/50 ml PEG20.000. The reactions were stopped by adding […] of 3% H3PO4. Aliquots were spotted onto P-81 phosphocellulose (Whatman, GE Healthcare Biosciences, Pittsburgh, USA), washed 3 times with 0.5% H3PO4 and finally air-dried. Kinase inhibition was quantified using a FLA-7000 digital image analyzer (Fujifilm, Tokyo, Japan).

CDK7/cyclin H/MAT1 = target: T2, CDK7/cyclin H/MAT1 (Homo sapiens, UniProt P50613); test: as above; type: biochemical; settings: read-out: Residual kinase activity, CDK7; for remaining activity at 0.1 µM: 100 nM; for remaining activity at 1 µM: 1000 nM
T2 construct: purchased ProQinase GmbH (Freiburg, Germany)
Experimental: (§2) CDK2/Cyclin E kinase was produced in Sf9 insect cells via baculoviral infection and purified on a NiNTA column (Qiagen). CDK5/p35, CDK7Cyclin H/MAT1 and CDK9/Cyclin T1 was purchased from ProQinase GmbH. The kinase reactions were assayed with 1 mg/mL histone H1 (for CDK2 and CDK5) or (YSPTSPS)2KK peptide (for CDK7 and CDK9) in the presence of 15/0.15/1.5/1.5 μM ATP (for CDK2/CDK5/CDK7CDK9), 0.05 μCi [γ-^33P]ATP and of the test compound in a final volume of 10 μL, all in a reaction buffer (60 mM HEPES-NaOH, pH 7.5, 3 mM MgCl2, 3 mM MnCl2, 3 μM Na-orthovanadate, 1.2 mM DTT, 2.5 μg/50 μl PEG20,000). The reactions were stopped by adding 5 μL of 3% aq H3PO4. Aliquots were spotted onto P-81 phosphocellulose (Whatman), washed 3× with 0.5% aq H3PO4 and finally air-dried.
as §1

CDK5/p35 = target: T3, CDK5/p35 (Homo sapiens, UniProt Q00535); test: as above; type: biochemical; settings: read-out: Residual kinase activity, CDK5; for remaining activity at 0.1 µM: 100 nM; for remaining activity at 1 µM: 1000 nM
T3 construct: purchased ProQinase GmbH (Freiburg, Germany)
Experimental: as §2, §1

CDK9/Cyclin T1 = target: T4, CDK9/Cyclin T1 (Homo sapiens, UniProt P50750); test: as above; type: biochemical; settings: read-out: Residual kinase activity, CDK9; for remaining activity at 0.1 µM: 100 nM; for remaining activity at 1 µM: 1000 nM
T4 construct: purchased ProQinase GmbH (Freiburg, Germany)
Experimental: as §2, §1

[1] = system: human umbilical vein endothelial cells (HUVECs); test: Migration scratch assay; type: cell-based; set-up: key to Wound area: ++: open; +: partly open; 0: closed; settings: for Wound area: 24 h; for inhibition of migration (in words): 24 h treatment
In short: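 Confluent HUVEC monolayers were scratched, then treated right away with various compound doses for 24 h. Wells were photographed and migration expressed as the proportion of wound-area pixels not covered by cells.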

[2] = system: caspase-3/7 activity in PLC/PRF/5 cell line; test: One-step cellular caspase-3/7 activity assay; type: cell-based, human; settings: 24 hours incubation, relative to 0 nM = 1.00
In short: (§3)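 Hep3B or PLC/PRF/5 cells, plated overnight, were exposed to compounds for 24 h. Lysis buffer containing 150 μM Ac-DEVD-AMC substrate was added, and plates were incubated at 37° C. Caspase-3/7 activity was read as AMC fluorescence (ex 346/em 442 nm) after 6 h.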

[3] = system: caspase-3/7 activity in Hep3B cell line; test: One-step cellular caspase-3/7 activity assay; type: cell-based, human; settings: 24 hours, 0 nM = 1.00
In short: as §3

[4] = system: human umbilical vein endothelial cells (HUVEC); test: HUVEC proliferation, Calcein AM; type: cell-based; settings: Homo sapiens, HUVEC, read-out: Inhibitory concentration for HUVEC cells - IC50
In short: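 Confluent HUVECs seeded in 96-well plates and exposed to compound for 24 or 72 h. Proliferation read by Calcein AM fluorescence.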

T1 sequence (P06493 whole entry, species assumed): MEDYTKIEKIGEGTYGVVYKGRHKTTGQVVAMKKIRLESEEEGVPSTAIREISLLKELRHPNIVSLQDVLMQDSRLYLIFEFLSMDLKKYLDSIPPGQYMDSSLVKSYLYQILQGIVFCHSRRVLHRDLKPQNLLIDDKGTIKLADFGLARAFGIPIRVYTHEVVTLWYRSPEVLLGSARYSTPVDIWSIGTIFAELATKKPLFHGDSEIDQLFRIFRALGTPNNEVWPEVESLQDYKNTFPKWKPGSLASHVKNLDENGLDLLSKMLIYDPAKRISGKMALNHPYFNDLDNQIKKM
T1 sequence (P14635 whole entry partner, species assumed): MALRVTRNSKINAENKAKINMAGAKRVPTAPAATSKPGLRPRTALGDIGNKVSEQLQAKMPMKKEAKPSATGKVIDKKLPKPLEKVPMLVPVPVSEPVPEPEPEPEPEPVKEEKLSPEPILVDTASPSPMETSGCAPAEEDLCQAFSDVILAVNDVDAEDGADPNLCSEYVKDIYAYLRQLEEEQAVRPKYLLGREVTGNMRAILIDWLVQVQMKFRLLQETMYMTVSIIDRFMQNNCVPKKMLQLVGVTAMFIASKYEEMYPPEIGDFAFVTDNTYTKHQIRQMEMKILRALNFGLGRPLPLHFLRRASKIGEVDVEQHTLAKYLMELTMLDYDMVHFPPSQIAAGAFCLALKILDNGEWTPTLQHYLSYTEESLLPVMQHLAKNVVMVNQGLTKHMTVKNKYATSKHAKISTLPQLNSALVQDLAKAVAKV
T4 sequence (P50750 whole entry): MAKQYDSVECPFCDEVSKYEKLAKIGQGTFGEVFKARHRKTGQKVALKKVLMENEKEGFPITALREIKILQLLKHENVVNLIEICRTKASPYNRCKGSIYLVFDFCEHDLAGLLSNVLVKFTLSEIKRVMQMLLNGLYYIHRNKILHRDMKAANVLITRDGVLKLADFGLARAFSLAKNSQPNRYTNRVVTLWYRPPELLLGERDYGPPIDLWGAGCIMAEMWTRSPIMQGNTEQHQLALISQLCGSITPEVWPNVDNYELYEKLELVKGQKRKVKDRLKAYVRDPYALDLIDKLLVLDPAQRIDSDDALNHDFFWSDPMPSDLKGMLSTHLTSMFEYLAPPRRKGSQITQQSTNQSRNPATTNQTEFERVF
T4 sequence (O60563 whole entry partner): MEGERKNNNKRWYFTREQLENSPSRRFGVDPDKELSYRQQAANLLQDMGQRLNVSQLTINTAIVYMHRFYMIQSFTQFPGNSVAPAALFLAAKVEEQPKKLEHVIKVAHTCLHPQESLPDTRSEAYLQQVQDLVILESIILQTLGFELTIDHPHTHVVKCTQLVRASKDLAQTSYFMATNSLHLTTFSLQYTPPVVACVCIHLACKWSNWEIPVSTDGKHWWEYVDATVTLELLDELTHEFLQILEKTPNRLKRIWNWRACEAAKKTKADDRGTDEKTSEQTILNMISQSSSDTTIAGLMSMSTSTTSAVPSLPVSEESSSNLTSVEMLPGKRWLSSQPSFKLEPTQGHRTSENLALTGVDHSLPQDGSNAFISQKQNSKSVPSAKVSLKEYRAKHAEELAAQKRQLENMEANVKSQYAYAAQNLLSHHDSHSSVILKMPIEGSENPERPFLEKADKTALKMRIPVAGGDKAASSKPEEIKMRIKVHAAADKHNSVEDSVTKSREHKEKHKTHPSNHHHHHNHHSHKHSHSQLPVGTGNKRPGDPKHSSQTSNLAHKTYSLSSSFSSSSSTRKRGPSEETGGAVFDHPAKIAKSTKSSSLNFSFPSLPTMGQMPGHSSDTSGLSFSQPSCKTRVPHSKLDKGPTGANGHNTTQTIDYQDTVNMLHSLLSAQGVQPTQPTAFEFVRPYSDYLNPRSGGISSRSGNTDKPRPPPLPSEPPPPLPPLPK
T2 sequence (P50613 whole entry): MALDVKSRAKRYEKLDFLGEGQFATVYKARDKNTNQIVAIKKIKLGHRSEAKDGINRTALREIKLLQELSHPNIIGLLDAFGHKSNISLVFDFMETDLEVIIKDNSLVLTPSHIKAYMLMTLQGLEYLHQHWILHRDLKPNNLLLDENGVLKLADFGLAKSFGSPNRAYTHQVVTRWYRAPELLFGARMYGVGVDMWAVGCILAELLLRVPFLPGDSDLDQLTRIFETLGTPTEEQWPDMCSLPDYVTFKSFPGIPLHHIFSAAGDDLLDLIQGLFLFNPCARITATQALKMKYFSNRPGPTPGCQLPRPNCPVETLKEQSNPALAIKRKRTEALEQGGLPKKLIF
T2 sequence (P51946 whole entry partner): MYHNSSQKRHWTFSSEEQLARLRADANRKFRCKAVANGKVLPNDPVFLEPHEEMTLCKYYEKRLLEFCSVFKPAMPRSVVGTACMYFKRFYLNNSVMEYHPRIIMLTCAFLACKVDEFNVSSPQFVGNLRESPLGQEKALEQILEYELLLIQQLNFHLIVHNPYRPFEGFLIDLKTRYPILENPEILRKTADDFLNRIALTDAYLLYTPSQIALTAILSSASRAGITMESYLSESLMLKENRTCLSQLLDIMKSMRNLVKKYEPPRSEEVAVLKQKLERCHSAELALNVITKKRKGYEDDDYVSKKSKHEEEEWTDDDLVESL
T2 sequence (P51948 whole entry partner): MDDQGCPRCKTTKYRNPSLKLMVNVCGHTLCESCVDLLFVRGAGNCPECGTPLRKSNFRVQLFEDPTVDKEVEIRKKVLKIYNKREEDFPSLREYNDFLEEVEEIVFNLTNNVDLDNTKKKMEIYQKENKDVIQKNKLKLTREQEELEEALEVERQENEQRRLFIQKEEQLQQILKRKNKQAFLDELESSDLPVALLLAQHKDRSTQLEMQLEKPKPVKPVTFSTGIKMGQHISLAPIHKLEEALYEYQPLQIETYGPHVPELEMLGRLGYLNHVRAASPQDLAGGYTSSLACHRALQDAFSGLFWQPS
T3 sequence (Q00535 whole entry): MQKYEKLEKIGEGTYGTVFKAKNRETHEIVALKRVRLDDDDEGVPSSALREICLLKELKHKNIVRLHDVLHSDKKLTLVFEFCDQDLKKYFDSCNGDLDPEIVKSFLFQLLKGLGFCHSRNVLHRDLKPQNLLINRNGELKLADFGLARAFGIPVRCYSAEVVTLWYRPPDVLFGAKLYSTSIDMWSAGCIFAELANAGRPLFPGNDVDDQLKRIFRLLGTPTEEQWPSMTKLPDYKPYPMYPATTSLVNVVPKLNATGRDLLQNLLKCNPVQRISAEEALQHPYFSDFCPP
T3 sequence (Q15078 whole entry partner): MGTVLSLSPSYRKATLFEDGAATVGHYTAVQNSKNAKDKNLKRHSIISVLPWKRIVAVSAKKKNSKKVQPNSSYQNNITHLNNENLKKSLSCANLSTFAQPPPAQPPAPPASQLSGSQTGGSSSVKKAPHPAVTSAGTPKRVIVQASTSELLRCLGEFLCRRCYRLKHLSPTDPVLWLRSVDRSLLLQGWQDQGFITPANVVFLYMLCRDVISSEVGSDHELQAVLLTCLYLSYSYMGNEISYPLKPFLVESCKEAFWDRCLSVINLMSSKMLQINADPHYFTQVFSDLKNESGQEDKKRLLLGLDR

Row | IC50 (CDK1/cyclin B) [nM] | remaining activity at 0.1 µM (CDK7/cyclin H/MAT1) [%] | remaining activity at 1 µM (CDK7/cyclin H/MAT1) [%] | remaining activity at 0.1 µM (CDK5/p35) [%] | remaining activity at 1 µM (CDK5/p35) [%] | remaining activity at 0.1 µM (CDK9/Cyclin T1) [%] | remaining activity at 1 µM (CDK9/Cyclin T1) [%] | Compound | Wound area ([1]; 100 nM) | Wound area ([1]; 1000 nM) | Relative caspase-3/7 activity in PLC/PRF/5 cell line ([2]; compound concentration 40 nM) | Relative caspase-3/7 activity in PLC/PRF/5 cell line ([2]; compound concentration 80 nM) | Relative caspase-3/7 activity in PLC/PRF/5 cell line ([2]; compound concentration 160 nM) | Relative caspase-3/7 activity in PLC/PRF/5 cell line ([2]; compound concentration 320 nM) | Relative caspase-3/7 activity in PLC/PRF/5 cell line ([2]; compound concentration 640 nM) | Relative caspase-3/7 activity in PLC/PRF/5 cell line ([2]; compound concentration 1280 nM) | Relative caspase-3/7 activity in Hep3B cell line ([3]; 200 nM) | Relative caspase-3/7 activity in Hep3B cell line ([3]; 400 nM) | Relative caspase-3/7 activity in Hep3B cell line ([3]; 800 nM) | Relative caspase-3/7 activity in Hep3B cell line ([3]; 1600 nM) | IC50 ([4]; 24 h) [nM] | further results
1 | 47 | 48 | 17.3 | 47.6 | 19.4 | 21.1 | 0.59 | NC1CCC(Nc2nc(NCc3ccc(-c4ccccc4O)nc3)c3ncn(C4CCCC4)c3n2)CC1 (centres unmarked) [BP20, N^2-(4-amino-cyclohexyl)-9-cyclopentyl-N^6-[6-(2-hydroxy-phenyl)-pyridin-3-ylmethyl]-9H-purine-2,6-diamine] | ++ | ++ | 3.15 | 2.66 | >5.00 | >5.00 | >5.00 | >5.00 | 5.37 | 8.25 | 9.63 | 9.95 | 29200 | inhibition of migration (in words) ([1]; 100 nM): Significant inhibition of migration; Relative caspase-3/7 activity in Hep3B cell line ([3]; 100 nM): 4.42; IC50 ([4]; 72 h): 570 nM
2 | 49 | 47.7 | 16.5 | 26 | 4.31 | 19.6 | 1.78 | NC1CCC(Nc2nc(NCc3ccc(-c4cccs4)nc3)c3ncn(C4CCCC4)c3n2)CC1 (centres unmarked) [BP30, N^2-(4-amino-cyclohexyl)-9-cyclopentyl-N^6-(6-thiophen-2-yl-pyridin-3-ylmethyl)-9H-purine-2,6-diamine] | ++ | ++ | 2.46 | 3.93 | >5.00 | >5.00 | >5.00 | >5.00 | 5.32 | 8.08 | 9.00 | 9.43 | 20400 | inhibition of migration (in words) ([1]; 100 nM): Significant inhibition of migration; Relative caspase-3/7 activity in Hep3B cell line ([3]; 100 nM): 2.99; IC50 ([4]; 72 h): 80 nM
3 | 169 | 64.1 | 33.5 | 65 | 8.7 | 32.8 | 2.39 | NC1CCC(Nc2nc(NCc3ccc(-c4ccsc4)nc3)c3ncn(C4CCCC4)c3n2)CC1 (centres unmarked) [BP35, N^2-(4-amino-cyclohexyl)-9-cyclopentyl-N^6-(6-thiophen-3-yl-pyridin-3-ylmethyl)-9H-purine-2,6-diamine] | 0 | ++ | 1.10 | 2.37 | 2.97 | >5.00 | >5.00 | >5.00 | 1.01 | 5.59 | 6.07 | 9.10 | > 50000 | IC50 ([4]; 72 h): 180 nM
4 | 66 | 49.1 | 17.3 | 31.9 | 2.95 | 15.4 | 1.68 | NC1CCC(Nc2nc(NCc3ccc(-c4ccoc4)nc3)c3ncn(C4CCCC4)c3n2)CC1 (centres unmarked) [BP36, N^2-(4-amino-cyclohexyl)-9-cyclopentyl-N^6-(6-furan-3-yl-pyridin-3-ylmethyl)-9H-purine-2,6-diamine] | + | ++ | 2.34 | >5.00 | >5.00 | >5.00 | >5.00 | >5.00 | 6.19 | 6.55 | 9.80 | 9.75 | 20800 | Relative caspase-3/7 activity in Hep3B cell line ([3]; 100 nM): 2.67; IC50 ([4]; 72 h): 190 nM
